{"source": "patent US11241434B2", "about": "“Compositions and methods for improving cognition in a subject” (Yale University, priority 2013, dated 2022)", "key": {"[1]": {"test_system": "APPswe/PS1ΔE9 transgenic mice", "experiment": "Histology of AD transgenic mice (Aβ plaque, PSD-95, SV2A)", "format": "in vivo, mouse", "details": "for synapse density (PSD-95, SV2A) in dentate gyrus: 5 weeks", "text": "FIGS. 10A-10C illustrate the finding that synaptic markers recover after treatment with a Fyn inhibitor. […] FIG. 10A: Representative sections from the labeled groups were stained with anti-PSD-95 antibody and the molecular layer of the dentate gyrus was imaged with a confocal microscope with a 60× objective lens. Scale bar, 3 μm. FIG. 10B: Fractional area of immunoreactive puncta for PSD-95. p<0.05, ANOVA with post-hoc pairwise Tukey comparisons. Mean±SEM, n=5-10 mice per group, two images per mouse. FIG. 10C: Fractional area of immunoreactive puncta for SV2. p<0.05, ANOVA with post-hoc pairwise Fisher's least significant difference (LSD). Mean±SEM, n=5-10 mice per group, two images per mouse.\nThe animals were familiarized with two objects on the first day of testing, and then observed on the next day with one novel object and one familiar object. The time spent exploring each object was scored by an observed unaware of drug treatment (FIG. 5). WT mice spend more time with the novel object. However, vehicle-treated APPswe/PS1ΔE9 mice spent equal time with both objects, consistent with impaired memory of familiarization on the previous day. […] The tissue from these mice is analyzed histologically, e.g., for Aβ plaque and synaptic markers (which are reduced in the transgenic mice). […] Without wishing to be limited by theory, this finding is consistent with the fact that saracatinib blocks the downstream action of Aβo on neurons, but not the upstream production of Aβ.\nUpon analysis of a post-synaptic marker (PSD-95) or a presynaptic marker (SV2A) in the dentate gyrus of the hippocampus, an saracatinib-induced restoration of synapse density was observed. The twelve-month old transgenic mice have lost approximately 30-40% of synapses by the immunohistological measures."}, "[2]": {"test_system": "mice with closed head injury (CHI) and chronic variable stress (CVS)", "experiment": "Behavioral tests after closed head injury plus chronic variable stress", "format": "in vivo, mouse", "protocol": "FIGS. 15A-15H illustrate the finding that Fyn inhibition rescues memory deficits after repeated mild head injury combined with chronic stress. FIG. 15A: Timeline for mice undergoing 14 days of chronic variable stress (CVS) and closed head injury (CHI) or Sham CVS & CHI paradigm. On Day 15, Rotarod testing was done to assess motor impairment in a subset of mice. The mice were treated with either AZD0530 (5 mg/kg/d) or Vehicle treatment for 10 weeks starting 24 hours after the final day of injury. This was followed by one week of behavioral testing, including novel object recognition test and Morris water maze prior to perfusion and immunohistochemistry. FIG. 15B: Rotarod prior to the treatment using the Sham and Injured groups. One-way ANOVA, p>0.05. Data are mean±SEM. n=8-9/group, each dot is one mouse. FIG. 15C: Novel object recognition test using the Sham mice and Injured mice with and without AZD0530 treatment. Two-way ANOVA, F(2,64)=5.258 p=0.007 for interaction of group with object, Sidak's multiple comparison test: Novel vs Familiar for Sham Vehicle (SV): p<0.0001, for Injured Vehicle (IV): p=0.99, for Injured AZD (IA): p=0.0002. Data are mean±SEM. n=9-13/group, each dot represents one mouse. FIG. 15D: Latency to reach a hidden platform in Morris water maze across 6 blocks of 4 swims for Sham mice and Injured mice with and without AZD0530 treatment. Data are mean±SEM. n=14-17/group. Two-way ANOVA for time and group with main effect of group, p<0.0001, F (2, 41)=47.24. Tukey's multiple comparison test: SV vs IV: p<0.0001, IV vs IA: p=0.98, SV vs IA: p<0.0001. FIG. 15E: Morris water maze probe trial for Sham or Injured mice treated with Vehicle or AZD0530, showing time in the Target quadrant. One way ANOVA: F(2,39)=9.410, p=0.0005, Tukey's multiple comparison test: SV vs IV: p=0.0003, IV vs IA: p=0.12, SV vs IA: p=0.05. Data are mean±SEM. n=13-15/group, each dot is one mouse. Dashed line indicates random chance performance. FIG. 15F: A second group of mice underwent a similar 14 days of chronic variable stress (CVS) plus closed head injury (CHI) or Sham CVS & CHI paradigm, and then starting on Day 121 were treated with either AZD0530 (5 mg/kg/d) or Vehicle for 10 weeks. The mice subsequently underwent Morris water maze testing. […] Data are mean±SEM. n=8-26/group. […] Data are mean±SEM. n=8-26/group, each dot is one mouse.\nThe injury model was based on the combination of Closed Head Injury (CHI) and Chronic Variable Stress (CVS). The Sham mice received Sham-CHI and Sham-CVS treatments.\nClosed Head Injury (CHI) is a well-established mice injury model (Sangobowale et al, 2018, Neurotrauma 35:907-917). Mice were weighed prior to receiving Sham-CHI or CHI. […] Mice were placed on a heating pad to maintain body temperature while receiving the impact, as well as during the post-injury recovery period. The mice underwent a total of 14 consecutive days of CHI injury, once per day. The site of injury alternated between right and left hemispheres on consecutive days. Each CHI injury was performed 1-3 hours after that day's CVS exposure. Injury severity was assessed using time interval between injury and recovery of the righting reflex (Grin'kina et al., 2013, PLoS One 8, e53775). The mice were placed on a heat pad both while receiving the impact, as well as the period following the impact to preserve their core body temperature. Mice were returned to vivarium after restoration of their righting reflex and this was typically less than 5 minutes. […]"}, "[3]": {"details": "Injured mice, 5 mg/kg/day from Day 15, 10 weeks"}}, "data": [{"smiles": "CN1CCN(CCOc2cc(OC3CCOCC3)c3c(Nc4c(Cl)ccc5c4OCO5)ncnc3c2)CC1", "note": "[saracatinib, N-(5-chloro-benzo[d][1,3]dioxol-4-yl)-7-(2-(4-methylpiperazin-1-yl)ethoxy)-5-(tetrahydro-2H-pyran-4-yloxy)quinazolin-4-amine]", "values": [{"measurement": "Aβ plaque content", "setting": "[1]; APPswe/PS1ΔE9 mice", "value": "No significant changes"}, {"measurement": "synapse density (PSD-95, SV2A) in dentate gyrus", "setting": "[1]; APPswe/PS1ΔE9 mice", "value": "restored to WT control levels"}, {"measurement": "synapse density (PSD-95, SV2A) in dentate gyrus", "setting": "[1]; WT mice", "value": "no change"}, {"measurement": "Morris water maze learning trials", "setting": "[2]; [3]", "value": "severely impaired learning relative to Sham Vehicle"}, {"measurement": "Morris water maze probe trial memory for platform location", "setting": "[2]; [3]", "value": "not statistically distinguishable from Sham Vehicle"}, {"measurement": "novel object recognition", "setting": "[2]; Injured mice, 5 mg/kg/day oral gavage from Day 15 (24 hours after final injury), 10 weeks", "value": "recognized familiar objects as successfully as Sham Vehicle mice"}, {"measurement": "Morris water maze probe trial memory", "setting": "[2]; Injured mice, treatment from Day 121 (107 days after final injury), 10 weeks", "value": "no evidence of improved memory"}, {"measurement": "Morris water maze latency in learning trials, Injured AZD vs Injured Vehicle", "setting": "[2]; treatment from Day 121, 10 weeks", "value": "not significantly different from one another"}]}]}
